Assay results as given in US20250368666A1, “INDAZOLE COMPOUNDS” (TYRA BIOSCIENCES, INC., priority 2022, published 2025).
Where two headings read alike, the source gives them in different places.

Experiments:
[1] = system: KG-1 cell line (FGFR 1-fusion); assay: Cancer cell line cell viability assay (Cell Titer-Glo), 72 hr; assay type: cell-based; conditions: Homo sapiens
Excerpt: (§1) Experimental Purpose: To detect the change of intracellular ATP by Cell Titer-Glo® and to evaluate the inhibitory effect of the compounds on cancer cell lines by determining the in vitro IC50 value of the compounds.
(§2) Cell Titer-Glo® 2.0 Luminescent cell viability assay reagent was purchased from Promega (Madison, WI). KG-1, KATO-III, and MDA-MB-453 cell lines were purchased from American Type Culture Collection (Manassas, VA). RT112/84 cell line was purchased from Millipore-Sigma (St. Louis, MO). HuH7 cells were purchased from Seikisui Xenotech (Kansas City, KS). RT112/84 and MDA-MB-453 cells were cultured in RPMI1640 media supplemented with 10% fetal bovine serum. KG-1 and KATO-III cell lines were cultured in IMDM media supplemented with 20% FBS. HuH7 cells were cultured in IMDM media supplemented with 10% FBS. Cultures were maintained at 37° C. in a humidified atmosphere of 5% CO2 and 95% air.
(§3) Cell Viability Assay Procedure: Cells were plated in 96-well clear bottom/white plates (Corning #3903) at a range of densities depending on the optimal assay window (5,000-20,000 cells/well in […] of media), incubated overnight. The next day, test compound DMSO stock solutions were made at 10 mM and […] final concentration. Compounds were then added to cells in a 9-dose, 4-fold dilution series starting at 3 μM with an HP 300e Digital Dispenser (each dose was applied in triplicate). DMSO was backfilled to each well up to 301 nL total volume of test compound+DMSO, and a total of 301 nL DMSO was added to a control/no test compound well in triplicate. The cells in cell culture plates were incubated with the compounds at 37° C. and 5% CO2 for 72 hours-120 hours depending on the cell line. Then 50 μl of Cell Titer Glo 2.0 reagent was added to each well of the cell culture plates. The contents were covered from light and mixed on an orbital shaker at room temperature for minimum of 10 min. Luminescence was recorded by a Clariostar Plus Microplate Reader (BMG Labtech, Cary, NC). Cells were assessed as a percentage of DMSO only treated control cells. Curves were plotted and IC50 values were calculated using the GraphPad Prism 9 program based on a sigmoidal dose-response equation (log (inhibitor) vs. response—Variable slope, 4-parameter).

[2] = system: RT112/84 cell line (FGFR3-fusion); assay: as above; assay type: cell-based; conditions: Homo sapiens
Excerpt: as §1, §2, §3

[3] = system: KATO-III cell line (FGFR2 amplification); assay: as above; assay type: cell-based; conditions: Homo sapiens
Excerpt: as §1, §2, §3

FGFR4 = biological target: T1, FGFR4 (Homo sapiens, UniProt P22455); assay: Kinase binding assay (kinase-tagged T7 phage, affinity beads, qPCR), Kd; conditions: read-out: FGFR4 (Kd nM)
T1 construct: made in house; host or cells: E. coli (BL21-derived), T7 phage
How it was run: (§4)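 T7 phage displaying each kinase, grown in a BL21-derived E. coli host at 32° C until lysis, competed with test compound for biotinylated ligand immobilised on streptavidin beads. Bead-bound kinase was eluted and quantified by qPCR. Kd came from an 11-point 3-fold dilution series fitted to the Hill equation with slope fixed at −1.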

FGFR3 (V555M) = biological target: T2, FGFR3 (V555M) (Homo sapiens, UniProt P22607, V555M); assay: as above; conditions: V555M mutant; read-out: FGFR3 (V555M) (Kd nM)
T2 construct: made in house; host or cells: E. coli (BL21-derived), T7 phage
How it was run: as §4

FGFR1 = biological target: T3, FGFR1 (Homo sapiens, UniProt P11362); assay: as above; conditions: read-out: FGFR1 (Kd nM)
T3 construct: made in house; host or cells: E. coli (BL21-derived), T7 phage
How it was run: as §4

FGFR3 = biological target: T4, FGFR3 (Homo sapiens, UniProt P22607); assay: as above; conditions: read-out: FGFR3 (Kd nM)
T4 construct: made in house; host or cells: E. coli (BL21-derived), T7 phage
How it was run: as §4

FGFR2 = biological target: T5, FGFR2 (Homo sapiens, UniProt P21802); assay: as above; conditions: read-out: FGFR2 (Kd nM)
T5 construct: made in house; host or cells: E. coli (BL21-derived), T7 phage
How it was run: as §4

[4] = KG-1, KG-1 cell line (FGFR1-fusion)
[5] = RT112/84, RT112/84 cell line (FGFR3-fusion)
[6] = kinase binding assay, 11-point 3-fold dilution series

T4 sequence (P22607 23-806): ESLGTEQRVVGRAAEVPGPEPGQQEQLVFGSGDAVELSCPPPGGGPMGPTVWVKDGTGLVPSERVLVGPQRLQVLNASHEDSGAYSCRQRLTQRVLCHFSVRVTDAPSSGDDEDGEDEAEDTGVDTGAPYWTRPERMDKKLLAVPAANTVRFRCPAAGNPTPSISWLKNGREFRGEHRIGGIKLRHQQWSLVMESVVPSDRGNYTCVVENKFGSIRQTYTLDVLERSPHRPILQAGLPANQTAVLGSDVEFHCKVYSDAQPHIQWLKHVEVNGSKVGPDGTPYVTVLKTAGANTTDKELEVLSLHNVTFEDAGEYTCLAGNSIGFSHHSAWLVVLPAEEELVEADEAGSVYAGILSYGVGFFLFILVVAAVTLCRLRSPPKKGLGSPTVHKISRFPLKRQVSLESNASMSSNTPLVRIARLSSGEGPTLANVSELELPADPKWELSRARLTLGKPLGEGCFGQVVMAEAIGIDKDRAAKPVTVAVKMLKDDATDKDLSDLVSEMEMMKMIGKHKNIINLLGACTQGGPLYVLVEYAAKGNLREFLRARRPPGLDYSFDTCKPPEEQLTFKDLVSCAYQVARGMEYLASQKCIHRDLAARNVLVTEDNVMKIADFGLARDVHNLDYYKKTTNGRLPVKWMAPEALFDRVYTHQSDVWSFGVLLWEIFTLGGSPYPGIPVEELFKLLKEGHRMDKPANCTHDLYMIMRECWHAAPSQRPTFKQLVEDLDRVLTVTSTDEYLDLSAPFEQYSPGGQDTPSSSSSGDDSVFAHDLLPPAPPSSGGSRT
T1 sequence (P22455 22-802): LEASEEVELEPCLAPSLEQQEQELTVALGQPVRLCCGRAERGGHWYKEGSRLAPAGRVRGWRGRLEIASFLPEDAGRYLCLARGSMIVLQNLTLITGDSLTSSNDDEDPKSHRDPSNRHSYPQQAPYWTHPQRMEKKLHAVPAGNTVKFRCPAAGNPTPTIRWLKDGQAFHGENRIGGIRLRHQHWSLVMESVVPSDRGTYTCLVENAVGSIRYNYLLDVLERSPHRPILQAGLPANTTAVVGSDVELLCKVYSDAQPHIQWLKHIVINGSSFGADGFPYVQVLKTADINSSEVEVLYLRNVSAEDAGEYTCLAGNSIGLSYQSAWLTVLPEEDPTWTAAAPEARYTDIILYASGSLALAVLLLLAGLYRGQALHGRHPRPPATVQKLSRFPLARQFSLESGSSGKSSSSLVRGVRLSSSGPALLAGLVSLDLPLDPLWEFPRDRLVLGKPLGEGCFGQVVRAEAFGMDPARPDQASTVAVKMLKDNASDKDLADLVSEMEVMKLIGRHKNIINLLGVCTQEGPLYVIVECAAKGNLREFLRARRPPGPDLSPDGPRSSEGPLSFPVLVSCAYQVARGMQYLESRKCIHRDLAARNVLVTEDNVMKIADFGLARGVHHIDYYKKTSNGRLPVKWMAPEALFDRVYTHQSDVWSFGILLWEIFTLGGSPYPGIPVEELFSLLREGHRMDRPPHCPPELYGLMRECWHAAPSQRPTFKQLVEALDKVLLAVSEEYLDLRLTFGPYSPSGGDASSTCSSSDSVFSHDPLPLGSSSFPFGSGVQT
T3 sequence (P11362 22-822): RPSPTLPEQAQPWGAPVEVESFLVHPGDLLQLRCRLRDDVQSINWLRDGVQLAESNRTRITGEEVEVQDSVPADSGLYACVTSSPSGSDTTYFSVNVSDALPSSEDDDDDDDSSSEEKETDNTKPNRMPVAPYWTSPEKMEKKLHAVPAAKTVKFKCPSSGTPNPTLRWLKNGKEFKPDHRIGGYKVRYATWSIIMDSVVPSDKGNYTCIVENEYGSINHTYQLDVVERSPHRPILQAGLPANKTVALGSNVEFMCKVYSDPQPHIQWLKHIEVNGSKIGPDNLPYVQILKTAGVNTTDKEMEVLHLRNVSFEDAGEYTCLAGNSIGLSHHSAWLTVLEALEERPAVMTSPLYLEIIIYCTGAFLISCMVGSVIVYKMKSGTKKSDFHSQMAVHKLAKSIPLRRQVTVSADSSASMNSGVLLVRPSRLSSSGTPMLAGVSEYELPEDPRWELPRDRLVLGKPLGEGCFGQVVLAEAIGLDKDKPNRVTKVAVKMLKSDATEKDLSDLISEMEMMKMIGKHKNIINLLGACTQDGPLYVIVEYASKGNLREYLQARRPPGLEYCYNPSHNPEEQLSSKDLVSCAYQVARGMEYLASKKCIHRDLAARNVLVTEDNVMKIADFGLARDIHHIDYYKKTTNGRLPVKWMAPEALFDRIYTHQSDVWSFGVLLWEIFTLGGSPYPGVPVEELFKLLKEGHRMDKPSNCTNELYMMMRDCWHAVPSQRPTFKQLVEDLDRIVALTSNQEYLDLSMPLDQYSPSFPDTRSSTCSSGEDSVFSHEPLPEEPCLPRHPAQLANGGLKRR
T2 sequence (P22607 23-806 V555M): as the sequence (P22607 23-806) above, with V533M counted along it
T5 sequence (P21802 22-821): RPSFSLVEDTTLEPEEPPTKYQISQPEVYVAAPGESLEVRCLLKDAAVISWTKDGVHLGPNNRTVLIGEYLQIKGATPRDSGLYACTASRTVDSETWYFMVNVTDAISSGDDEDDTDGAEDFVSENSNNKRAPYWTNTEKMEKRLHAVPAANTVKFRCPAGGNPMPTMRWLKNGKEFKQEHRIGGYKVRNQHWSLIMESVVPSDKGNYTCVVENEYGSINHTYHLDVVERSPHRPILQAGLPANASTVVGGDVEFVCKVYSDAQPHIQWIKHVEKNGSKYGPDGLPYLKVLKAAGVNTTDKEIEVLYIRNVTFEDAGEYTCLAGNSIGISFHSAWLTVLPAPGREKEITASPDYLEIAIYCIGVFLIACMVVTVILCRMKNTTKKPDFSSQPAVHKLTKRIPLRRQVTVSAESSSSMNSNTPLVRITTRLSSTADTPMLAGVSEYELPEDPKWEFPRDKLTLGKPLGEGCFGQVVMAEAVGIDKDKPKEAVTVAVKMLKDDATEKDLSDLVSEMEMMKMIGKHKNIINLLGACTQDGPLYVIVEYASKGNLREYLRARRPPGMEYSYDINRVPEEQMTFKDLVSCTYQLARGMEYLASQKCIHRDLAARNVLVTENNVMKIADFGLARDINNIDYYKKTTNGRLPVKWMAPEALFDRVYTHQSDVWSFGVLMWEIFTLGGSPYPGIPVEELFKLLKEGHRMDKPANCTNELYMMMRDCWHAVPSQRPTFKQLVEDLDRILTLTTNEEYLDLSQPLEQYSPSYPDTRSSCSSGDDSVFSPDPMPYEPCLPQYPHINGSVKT

Compound | IC50 [1, 4] [nM] | IC50 [2, 5] [nM] | IC50 ([3]; KATO III) [nM] | Kd (FGFR4) [nM] | Kd (FGFR3 (V555M)) [nM] | Kd (FGFR1) [nM] | Kd (FGFR3) [nM] | Kd (FGFR2) [nM] | IC50 ([1]; KG-1 cell line (FGFR1-fusion)) [nM] | IC50 ([2]; RT112/84 cell line (FGFR3-fusion)) [nM] | IC50 [3] [nM] | Kd (FGFR1; [6]) [nM] | Kd (FGFR3; [6]) [nM]
C[C@@H](Oc1cc2c(-c3cnc(N4CC(C)(N5CCCC5)C4)c(F)c3)n[nH]c2cc1F)c1c(Cl)cncc1Cl [Example 128, (R)-5-(1-(3,5-dichloropyridin-4-yl)ethoxy)-6-fluoro-3-(5-fluoro-6-(3-methyl-3-(pyrrolidin-1-yl)azetidin-1-yl)pyridin-3-yl)-1H-indazole] | 0.1 to 50 | 0.1 to 50 | 0.1 to 50 | 1 to 50 | 1 to 50 | 1 to 50 | 1 to 50 | 1 to 50 |  |  |  |  | 
COP(=O)(CC1(C)CN(c2ccc(-c3n[nH]c4ccc(O[C@H](C)c5c(Cl)cncc5Cl)cc34)cn2)C1)OC [Example 214, (R)-dimethyl ((1-(5-(5-(1-(3,5-dichloropyridin-4-yl)ethoxy)-1H-indazol-3-yl)pyridin-2-yl)-3-methylazetidin-3-yl)methyl)phosphonate] |  |  |  | 1 to 50 | 1 to 50 | 1 to 50 | 1 to 50 | 1 to 50 | 50 to 200 | 0.1 to 50 | 0.1 to 50 |  | 
COc1cc2[nH]nc(-c3cnc(N4CC5(CC5)C4)c(C#N)c3)c2cc1O[C@H](C)c1c(Cl)cncc1Cl [Example 65, 2-(5-azaspiro[2.3]hexan-5-yl)-5-[5-[(1R)-1-(3,5-dichloro-4-pyridyl)ethoxy]-6-methoxy-1H-indazol-3-yl]pyridine-3-carbonitrile] | 200 to 1000 | 0.1 to 50 | > 1000 |  |  |  |  | 1 to 50 |  |  |  |  | 
COC1(C)CN(C2(C)CN(c3ncc(-c4n[nH]c5ccc(O[C@H](C)c6c(Cl)cncc6Cl)cc45)cc3F)C2)C1 [Example 97, (R)-5-(1-(3,5-dichloropyridin-4-yl)ethoxy)-3-(5-fluoro-6-(3-methoxy-3,3′-dimethyl-[1,3′-biazetidin]-1′-yl)pyridin-3-yl)-1H-indazole] | 50 to 200 | 0.1 to 50 | 0.1 to 50 | 1 to 50 | 1 to 50 | 1 to 50 | 1 to 50 | 1 to 50 |  |  |  |  | 
C=CCNC1(C)CN(c2ccc(-c3n[nH]c4ccc(O[C@H](C)c5c(Cl)cncc5Cl)cc34)cn2)C1 [Example 232, (R)-N-ally1-1-(5-(5-(1-(3,5-dichloropyridin-4-yl)ethoxy)-1H-indazol-3-yl)pyridin-2-yl)-3-methylazetidin-3-amine] | 50 to 200 | 0.1 to 50 | 0.1 to 50 | 1 to 50 | 1 to 50 | 1 to 50 | 1 to 50 | 1 to 50 |  |  |  |  | 
C[C@@H](Oc1ccc2[nH]nc(-c3cnc(N4CC(C)(NCC5(O)CC5)C4)c(F)c3)c2c1)c1c(Cl)cncc1Cl [Example 118, (R)-1-(((1-(5-(5-(1-(3,5-dichloropyridin-4-yl)ethoxy)-1H-indazol-3-yl)-3-fluoropyridin-2-yl)-3-methylazetidin-3-yl)amino)methyl)cyclo-propan-1-ol] | 0.1 to 50 | 0.1 to 50 | 0.1 to 50 | 1 to 50 | 1 to 50 | 1 to 50 | 1 to 50 | 1 to 50 |  |  |  |  | 
Cc1ncc(Cl)c([C@@H](C)Oc2ccc3[nH]nc(-c4cnc(N5CC(C)(CS(C)(=O)=O)C5)c(F)c4)c3c2)c1Cl [Example 210, 5-[(1R)-1-(3,5-dichloro-2-methyl-4-pyridyl)ethoxy]-3-[5-fluoro-6-[3-methyl-3-(methylsulfonyl-methyl)azetidin-1-yl]-3-pyridyl]-1H-indazole] | 200 to 1000 | 0.1 to 50 | 50 to 200 | 1 to 50 | 1 to 50 | 50 to 300 | 1 to 50 | 1 to 50 |  |  |  |  | 
C[C@@H](Oc1ccc2[nH]nc(-c3cnc(N4CC(N)(c5ccnn5C)C4)c(F)c3)c2c1)c1c(Cl)cncc1Cl [Example 392, (R)-1-(5-(5-(1-(3,5-dichloropyridin-4-yl)ethoxy)-1H-indazol-3-yl)-3-fluoropyridin-2-yl)-3-(1-methyl-1H-pyrazol-5-yl)azetidin-3-amine] | 50 to 200 | 0.1 to 50 | 0.1 to 50 |  |  |  |  |  |  |  |  | 1 to 50 | 1 to 50
CCC1(N)CN(c2ccc(-c3n[nH]c4ccc(O[C@H](C)c5c(Cl)cncc5Cl)cc34)nn2)C1 [Example 299, (R)-1-(6-(5-(1-(3,5-Dichloropyridin-4-yl)ethoxy)-1H-indazol-3-yl)pyridazin-3-yl)-3-ethylazetidin-3-amine] | 50 to 200 | 0.1 to 50 | 50 to 200 |  |  | 1 to 50 | 1 to 50 |  |  |  |  |  | 
CC(C)=CCC1(N)CN(c2ccc(-c3n[nH]c4ccc(O[C@H](C)c5c(Cl)cncc5Cl)cc34)nn2)C1 [Example 378, (R)-1-(6-(5-(1-(3,5-dichloropyridin-4-yl)ethoxy)-1H-indazol-3-yl)pyridazin-3-yl)-3-(3-methylbut-2-en-1-yl)azetidin-3-amine] | > 1000 | 0.1 to 50 | 50 to 200 |  |  | 1 to 50 | 1 to 50 |  |  |  |  |  | 
COCC1(N)CN(c2ccc(-c3n[nH]c4ccc(O[C@H](C)c5c(Cl)cncc5Cl)cc34)nn2)C1 [Example 376, (R)-1-(6-(5-(1-(3,5-dichloropyridin-4-yl)ethoxy)-1H-indazol-3-yl)pyridazin-3-yl)-3-(methoxy-methyl)aze-tidin-3-amine] | 200 to 1000 | 0.1 to 50 | 50 to 200 |  |  | 1 to 50 | 1 to 50 |  |  |  |  |  | 
C[C@@H](Oc1ccc2[nH]nc(-c3ccc(N4CC(C)(NCC(=O)N(C)C)C4)nn3)c2c1)c1c(Cl)cncc1Cl [Example 314, (R)-2-((1-(6-(5-(1-(3,5-dichloropyridin-4-yl)ethoxy)-1H-indazol-3-yl)pyridazin-3-yl)-3-methylazetidin-3-yl)amino)-N,N-dimethylacetamide] | 200 to 1000 | 0.1 to 50 | 50 to 200 |  |  | 1 to 50 | 1 to 50 |  |  |  |  |  | 
C=CCNC1(CC#N)CN(c2ncc(-c3n[nH]c4ccc(O[C@H](C)c5c(Cl)cncc5Cl)cc34)cc2F)C1 [Example 248, 2-[3-(allylamino)-1-[5-[5-[(1R)-1-(3,5-dichloro-4-pyridyl)ethoxy]-1H-indazol-3-yl]-3-fluoro-2-pyridyl]azetidin-3-yl]acetonitrile] | 200 to 1000 | 0.1 to 50 | 50 to 200 |  |  | 1 to 50 | 1 to 50 |  |  |  |  |  | 
CNC(=O)C1(N)CN(c2ccc(-c3n[nH]c4ccc(O[C@H](C)c5c(Cl)cncc5Cl)cc34)nn2)C1 [Example 300, (R)-3-amino-1-(6-(5-(1-(3,5-dichloropyridin-4-yl)ethoxy)-1H-indazol-3-yl)pyridazin-3-yl)-N-methylazetidine-3-carboxamide] | > 1000 | 0.1 to 50 | 50 to 200 |  |  | 1 to 50 | 1 to 50 |  |  |  |  |  | 
C[C@@H](Oc1ccc2[nH]nc(-c3ccc(N4CC(C)(NCC5CC5)C4)nn3)c2c1)c1c(Cl)cncc1Cl [Example 249, (R)-N-(cyclopropyl-methyl)-1-(6-(5-(1-(3,5-dichloropyridin-4-yl)ethoxy)-1H-indazol-3-yl)pyridazin-3-yl)-3-methylazetidin-3-amine] | 50 to 200 | 0.1 to 50 | 0.1 to 50 |  |  | 1 to 50 | 1 to 50 |  |  |  |  |  | 
